Test results from BindingDB's records for doi:10.1016/s0960-894x(03)00491-8 (Central Drug Research Institute, 2003).

Target: Beta-3 adrenergic receptor (Homo sapiens, UniProt P13945)
Test: In vitro effective concentration against beta-3 adrenergic receptor.

Chain of Beta-3 adrenergic receptor (P13945 whole entry): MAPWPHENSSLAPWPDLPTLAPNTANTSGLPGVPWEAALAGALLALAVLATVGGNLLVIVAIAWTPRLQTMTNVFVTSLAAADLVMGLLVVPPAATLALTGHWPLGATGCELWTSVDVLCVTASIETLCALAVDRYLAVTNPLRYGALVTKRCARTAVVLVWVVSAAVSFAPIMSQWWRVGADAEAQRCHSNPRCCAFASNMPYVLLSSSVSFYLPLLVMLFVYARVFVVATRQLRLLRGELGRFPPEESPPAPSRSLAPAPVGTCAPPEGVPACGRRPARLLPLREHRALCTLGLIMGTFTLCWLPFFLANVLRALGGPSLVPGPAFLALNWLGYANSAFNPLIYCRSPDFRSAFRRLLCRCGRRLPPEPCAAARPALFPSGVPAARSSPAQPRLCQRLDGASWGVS

Row | EC50 | SMILES
1 | 63.1 nM | CCCCCCCCn1cc(O)n(-c2ccc(S(=O)(=O)Nc3ccc(CCNC[C@H](O)c4cccnc4)cc3)cc2)c1=O [N-{4-[2-((R)-2-Hydroxy-2-pyridin-3-yl-ethylamino)-ethyl]-phenyl}-4-(3-octyl-2,5-dioxo-imidazolidin-1-yl)-benzenesulfonamide]
2 | 3.63 nM | CCCCCCn1cc(O)n(-c2ccc(S(=O)(=O)Nc3ccc(CCNC[C@H](O)c4cccnc4)cc3)cc2)c1=O [4-(3-Hexyl-2,5-dioxo-imidazolidin-1-yl)-N-{4-[2-(2-hydroxy-2-pyridin-3-yl-ethylamino)-ethyl]-phenyl}-benzenesulfonamide]
3 | 77.6 nM | CCCCCCn1c(O)cn(-c2ccc(S(=O)(=O)Nc3ccc(CCNC[C@H](O)c4cccnc4)cc3)cc2)c1=O [4-(3-Hexyl-2,4-dioxo-imidazolidin-1-yl)-N-{4-[2-(2-hydroxy-2-pyridin-3-yl-ethylamino)-ethyl]-phenyl}-benzenesulfonamide]
